We go through 9 compounds from ChEMBL document CHEMBL5728389, “Nicotinyl alcohol ether derivative, preparation method therefor, and pharmaceutical composition and uses thereof” (2021).

The target of the test is Programmed cell death protein 1/Programmed cell death 1 ligand 1 (Homo sapiens, UniProt Q15116+Q9NZQ7). Description: In Vitro Activity Assay: In vitro activity evaluation: Cisbio PD-1/PD-L1 binding assay kit was applied for the detection method of in vitro enzymology level.Screening Principles and Methods of PD-1/PD-L1 Small Molecule Inhibitors1) Principle: PD-1 protein is with HIS tag, and PD-1 ligand PD-L1 is with hFc tag. Eu labeled anti-hFc antibody and XL665 labeled anti-HIS antibody are combined with the above two label proteins respectively. After laser excitation, energy can be transferred from donor Eu to receptor XL665, allowing XL665 to glow. […] Reagents should be dispensed in the following order. For 384-well white ELISA plate, 2 μl of diluent or target compound diluted with diluent was added to each well, and then 4 μl of PD-1 protein and 4 μl of PD-L1 protein were added per well, incubated for 15 min at room temperature; and 10 μl of a mixture of anti-Tag1-Eu3+ and anti-Tag2-XL665 was added per well and incubated for 1 h to 4 h at room temperature and the fluorescence signals at 665 nm and 620 nm were measured with an Envison instrument. HTRF rate=(665 nm/620 nm)*104. 8-10 concentrations were detected for each compound and IC50 was calculated by Graphpad software. It is filed as protein-complex assay.
Programmed cell death protein 1/Programmed cell death 1 ligand 1, sequence (Q15116 whole entry): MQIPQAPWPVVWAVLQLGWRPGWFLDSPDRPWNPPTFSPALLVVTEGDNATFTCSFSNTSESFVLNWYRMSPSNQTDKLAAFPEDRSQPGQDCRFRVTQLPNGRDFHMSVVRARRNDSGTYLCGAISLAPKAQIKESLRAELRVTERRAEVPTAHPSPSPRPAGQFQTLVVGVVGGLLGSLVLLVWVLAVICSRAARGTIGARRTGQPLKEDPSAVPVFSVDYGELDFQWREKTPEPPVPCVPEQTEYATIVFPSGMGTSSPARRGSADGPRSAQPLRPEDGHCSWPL
Programmed cell death protein 1/Programmed cell death 1 ligand 1, sequence (Q9NZQ7 whole entry): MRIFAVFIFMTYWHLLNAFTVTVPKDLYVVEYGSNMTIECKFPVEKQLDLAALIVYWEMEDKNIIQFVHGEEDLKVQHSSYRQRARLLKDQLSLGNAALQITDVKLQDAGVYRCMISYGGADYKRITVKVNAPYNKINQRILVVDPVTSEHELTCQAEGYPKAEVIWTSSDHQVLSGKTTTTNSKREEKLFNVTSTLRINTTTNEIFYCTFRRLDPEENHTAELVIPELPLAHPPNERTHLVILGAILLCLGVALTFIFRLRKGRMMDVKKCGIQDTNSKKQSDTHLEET

In general, IC50 refers to the concentration at which inhibition is half-maximal. As for `O=C(O)[C@H](CO)NCc1cc(Cl)c(OCc2cccc(-c3ccccc3)c2Cl)cc1OCc1cccnc1`, the half-maximal inhibitory concentration (IC50) was 40.1 nM.

On to `O=C(O)[C@H](CO)NCc1cc(Cl)c(OCc2cccc(-c3ccccc3)c2F)cc1OCc1cccnc1`, for which the concentration for half-maximal inhibition (IC50) was 134 nM.

For the compound `O=C(O)[C@H](CO)NCc1cc(Cl)c(OCc2cccc(-c3ccccc3)c2)cc1OCc1cccnc1`, the IC50 is 318 nM.

With `NC(=O)C[C@H](NCc1cc(Cl)c(OCc2cccc(-c3ccccc3)c2Br)cc1OCc1cccnc1)C(=O)O`, the IC50 is 835 nM.

Turning to `C/C(=C\C(=O)O)NCc1cc(Cl)c(OCc2cccc(-c3ccccc3)c2Br)cc1OCc1cccnc1`, the IC50 was 2.33 nM.

As for `O=S(=O)(O)CCNCc1cc(Cl)c(OCc2cccc(-c3ccccc3)c2Br)cc1OCc1cccnc1`, the half-maximal inhibitory concentration (IC50) is 16200 nM.

With `OCCN(CCO)Cc1cc(Cl)c(OCc2cccc(-c3ccccc3)c2Br)cc1OCc1cccnc1`, the IC50 is 51 nM.

As to `OCCNCc1cc(Cl)c(OCc2cccc(-c3ccccc3)c2Br)cc1OCc1cccnc1`, the half-inhibitory concentration (IC50) was 53.8 nM.

With `C[C@H](NCc1cc(Cl)c(OCc2cccc(-c3ccccc3)c2Br)cc1OCc1cccnc1)C(=O)O`, the IC50 was 5.29 nM.
